Assay results as given in US20050238727A1, “Coadministration of radiation, efaproxiral sodium, and supplemental oxygen for the treatment of cancer” (priority 2004, published 2005).

Legend:
Type in all cases: in vivo, human
[1] = tested on: brain metastases; assay: Survival of patients with brain metastases given efaproxiral sodium + WBRT + supplemental oxygen (controlled study RT-009)
Experimental: Patients with brain metastases were administered efaproxiral sodium in a total dose of 0-100 mg/kg per day based on the dosing guidelines detailed above. In general, efaproxiral sodium is administered by intravenous infusion through a central venous access device over 30 minutes at a dose of 75 or 100 mg/kg daily with concurrent supplemental oxygen. Oxygen must be administered at 4 L/min via nasal cannula or facemask beginning 5 minutes prior to initiation of infusion, during infusion and WBRT, and for at least 15 minutes after completion of daily WBRT. Efaproxiral sodium is administered every day of a fractionated course of WBRT. Except when contraindicated, WBRT must be administered within 30 minutes of the end of the efaproxiral sodium infusion. The patients were given the drug in one dose. Efaproxiral sodium was administered via central venous access with flow rate controlled by volumetric pump over a 30-45 minute interval with end-infusion no longer than 30 minutes prior to each radiation dose of a 10-day course of WBRT. Efaproxiral sodium was formulated as a sterile solution for injection and was supplied in single-use glass bottles containing 10 g efaproxiral sodium in 500 mL of 0.225% NaCl at a concentration of 20 mg/mL. Efaproxiral sodium was administered during the 10-day course of WBRT, for a maximum of 10 doses. A control group received radiation and supplemental oxygen only. Supplemental oxygen is administered at about 4 L/min via nasal cannula beginning about 5 minutes prior to initiation of infusion, during infusion and WBRT, and for at least about 15 minutes after completion of daily WBRT. If the desired SpO2 of greater than or equal to 90% while breathing room air is not achieved, supplemental oxygen is to be continued and increased to a flow of 6-8 L/min, if necessary, until the SpO2 while breathing room air is stabilized at greater than or equal to 90%. Plasma and red blood cell (RBC) drug concentration were assayed on 2 days during the course of efaproxiral sodium administration: WBRT day 1 (end-infusion) and on 1 single day between WBRT days 6 and 10 (pre-infusion and end-infusion assays). Regression analysis was used to explore the relationship between trough and peak concentrations and continuous clinical covariates (eg, age, serum albumin, hematocrit, serum creatinine, etc). […] A dose of efaproxiral sodium was considered predicatably therapeutic if it achieved a sufficient, RBC concentration (>483 μg/ml), and corresponded to a predicted p50 shift of 10 mmHg. One measurement of efficacy is the survival in the total patient population. For eligible patients, the observed mean survival time for the control group was 4.37 months as compared to 5.39 months for the efaproxiral sodium treated group.

[2] = Treatment-emergent adverse events in the controlled study
Experimental: Patients with brain metastases were administered efaproxiral sodium in a total dose of 0-100 mg/kg per day based on the dosing guidelines detailed above. In general, efaproxiral sodium is administered by intravenous infusion through a central venous access device over 30 minutes at a dose of 75 or 100 mg/kg daily with concurrent supplemental oxygen. Oxygen must be administered at 4 L/min via nasal cannula or facemask beginning 5 minutes prior to initiation of infusion, during infusion and WBRT, and for at least 15 minutes after completion of daily WBRT. Efaproxiral sodium is administered every day of a fractionated course of WBRT. Except when contraindicated, WBRT must be administered within 30 minutes of the end of the efaproxiral sodium infusion.
The patients were given the drug in one dose. Efaproxiral sodium was administered via central venous access with flow rate controlled by volumetric pump over a 30-45 minute interval with end-infusion no longer than 30 minutes prior to each radiation dose of a 10-day course of WBRT. Efaproxiral sodium was formulated as a sterile solution for injection and was supplied in single-use glass bottles containing 10 g efaproxiral sodium in 500 mL of 0.225% NaCl at a concentration of 20 mg/mL. Efaproxiral sodium was administered during the 10-day course of WBRT, for a maximum of 10 doses. A control group received radiation and supplemental oxygen only.
The majority of treatment-emergent adverse events were Grade 1 or 2 in severity, resolved spontaneously or within the duration of the study, and responded well to concomitant treatment with antiemetics for nausea/vomiting, nonsteroidal anti-inflammatory drugs for headache, supplemental oxygen for hypoxemia. […] Muscle weakness and dyspnea (reported in 3% of patients ) were the most commonly reported Grade 3 adverse events in Control patients and both events were reported as a Grade 4 event in 1 patient each. The most commonly reported Grade 4 adverse event in both treatment and control groups was disease progression (reported in 6% of both groups).

[3] = Plasma and red blood cell (RBC) drug concentration during efaproxiral sodium administration
Experimental: Plasma and red blood cell (RBC) drug concentration were assayed on 2 days during the course of efaproxiral sodium administration: WBRT day 1 (end-infusion) and on 1 single day between WBRT days 6 and 10 (pre-infusion and end-infusion assays). Regression analysis was used to explore the relationship between trough and peak concentrations and continuous clinical covariates (eg, age, serum albumin, hematocrit, serum creatinine, etc). […] A dose of efaproxiral sodium was considered predicatably therapeutic if it achieved a sufficient, RBC concentration (>483 μg/ml), and corresponded to a predicted p50 shift of 10 mmHg.

[4] = tested on: brain metastases; assay: Radiographic response of brain metastases (contrast enhanced MRI or CT, blinded central review)
From the text: Radiographic progression is defined by radiographic criteria only, based on a blinded central review. Determination of radiographic tumor progression in the brain was based on contrast enhanced MRI or CT scans taken at screening and compared to follow-up scans taken 1 month after the end of WBRT, 3 months after the end of WBRT, and every 3 months thereafter until death. Maximum bi-dimensional measurements (x=transverse, y=antero-posterior) were used to compute the bi-dimensional product and for determination of response and radiographic progression. Time to radiographic tumor progression in the brain was reported by means of Kaplan-Meier estimates. Gray's test (Gray R. A class of K-sample tests for comparing the cumulative incidence of a competing risk. Annals of Statistics […];16:1141-1154) was used to compare cumulative incidence between treatment and control groups. Potential competing risks for radiographic progression in the brain included death without progression and loss to follow-up. The date of tumor progression is defined as the date of radiographic documentation that any treated lesion in the brain is enlarged by more than 25% in the bi-dimensional product. The reference to “any treated lesion” mans that the lesion was present prior to RT.

[5] = Quality of life: Karnofsky Performance Status (KPS); conditions: for patients with stable or improving KPS scores: all randomized patients, N = 271
Experimental: (§1) Quality of life was determined by means of the Spitzer Questionnaire (SQ) and Kamofsky Performance Status (KPS) assessment. The tests were performed at baseline, at WBRT day 10, and at all routine follow-up visits. A sustained drop in the KPS score to less than 60 was defined as a significant drop. The 5 questions comprising the Spitzer Questionnaire were weighted evenly. For each evaluation with at least 3 out of 5 questions answered, an average score was computed for each patient. Questionnaires with fewer than 3 questions answered were treated as missing data. The protocol specified a sustained drop in the Spitzer Questionnaire score of 2 points constituted a significant drop.

[6] = Quality of life: Spitzer Questionnaire (SQ); conditions: all randomized patients, N = 271
Experimental: as §1

[7] = Resaturation time / supplemental oxygen requirement after efaproxiral sodium plus WBRT; conditions: majority of doses; patients with brain metastases from breast cancer
Experimental: Depending upon an individual patient's resaturation time (time required to recover to a stable≧90% SpO2 on room air) following efaproxiral sodium plus WBRT, supplemental oxygen use may be required for as little as 30 minutes to more than 4 hours. […] During this period of decreased oxygen saturation, patients require continuous SpO2 monitoring. If the desired SpO2 of≧90% while breathing room air is not achieved, supplemental oxygen is to be continued and increased to a flow of 6-8 L/min, if necessary, until the SpO2 while breathing room air is stabilized at≧90%.

Cc1cc(C)cc(NC(=O)Cc2ccc(OC(C)(C)C(=O)O)cc2)c1 [efaproxiral sodium, 2-[4-(((3,5-dimethylanilino)carbonyl)methyl)phenoxy]-2-methylpropionic acid]
MST (median survival time) ([1]; All patients, <7 efaproxiral sodium doses): 2.96 (53) | MST (median survival time) ([1]; All patients, ≧7 efaproxiral sodium doses, <7 successful (RBC >483 μg/ml)): 4.93 (118) | MST (median survival time) ([1]; All patients, ≧7 efaproxiral sodium doses, ≧7 successful (RBC >483 μg/ml), p 0.001 vs Control): 6.90 (100) 0.001 | MST (median survival time) ([1]; Breast patients, <7 efaproxiral sodium doses): 3.52 (13) | MST (median survival time) ([1]; Breast patients, ≧7 efaproxiral sodium doses, <7 successful): 7.33 (22) | MST (median survival time) ([1]; Breast patients, ≧7 efaproxiral sodium doses, ≧7 successful, p 0.0002 vs Control): 25.72 (25) 0.0002 | MST (median survival time) ([1]; NSCLC patients, <7 efaproxiral sodium doses): 2.71 (30) | MST (median survival time) ([1]; NSCLC patients, ≧7 efaproxiral sodium doses, <7 successful): 4.73 (65) | MST (median survival time) ([1]; NSCLC patients, ≧7 efaproxiral sodium doses, ≧7 successful, p 0.0011 vs Control): 6.83 (53) 0.0011 | observed mean survival time ([1]; eligible patients, control group 4.37 months): 5.39 months | HR, survival distribution function, treatment versus control ([1]; patients with breast as site of primary, p=0.0061): 0.552 | severity of the majority of treatment-emergent adverse events ([2]; controlled study): Grade 1 or 2 | Grade 4 hypoxemia ([2]; efaproxiral sodium-treated patients): no Grade 4 hypoxemia was reported | Grade 3 hypoxemia, patients reporting ([2]; efaproxiral sodium-treated patients, most commonly reported Grade 3 adverse event): 11% | Grade 4 disease progression, patients reporting ([2]; most commonly reported Grade 4 adverse event, same in control group): 6% | drug accumulation ([3]; WBRT week 2 preinfusion concentrations in RBCs): No clinically relevant drug accumulation occurred | predicted p50 shift ([3]; at RBC concentration >483 μg/ml): 10 mmHg | change of concentration in RBCs with dose ([3]; patients dosed at 75 or 100 mg/kg): proportional increase | estimated increase in radiographic response rate compared to Control ([4]; all randomized patients, 95% CI −0.4%-16.3%, p=0.0609): 7.9% | treatment effect for predicting response (logistic multiple regression) ([4]; breast primary patients, p=0.0209): statistically significant | patients with stable or improving KPS scores ([5]; 1 month): 119 (44) n (%) | patients with stable or improving KPS scores ([5]; 3 months): 64 (24) n (%) | patients with stable or improving KPS scores ([5]; 6 months): 49 (18) n (%) | patients with stable or improving KPS scores ([5]; 12 months): 19 (7) n (%) | distribution of KPS score categories between treatment groups ([5]; breast primary patients, 6 months and 1 year (p=0.0046 and p=0.0070)): statistically significant difference | patients with stable or improving SQ scores ([6]; 1 month): 115 (42) n (%) | patients with stable or improving SQ scores ([6]; 3 months): 62 (23) n (%) | patients with stable or improving SQ scores ([6]; 6 months): 43 (16) n (%) | patients with stable or improving SQ scores ([6]; 12 months): 24 (9) n (%) | supplemental oxygen required after completion of WBRT [7]: one
